Here are results for 33 compounds from US7407954B2, “Thieno-(1,3)-oxazin-4-ones with lipase inhibiting activity” (Alizyme Therapeutics Limited, priority 2001, dated 2008).

For experiment [1], the target named is T1, human pancreatic lipase (Homo sapiens, UniProt P16233).
T1 sequence (P16233 17-465): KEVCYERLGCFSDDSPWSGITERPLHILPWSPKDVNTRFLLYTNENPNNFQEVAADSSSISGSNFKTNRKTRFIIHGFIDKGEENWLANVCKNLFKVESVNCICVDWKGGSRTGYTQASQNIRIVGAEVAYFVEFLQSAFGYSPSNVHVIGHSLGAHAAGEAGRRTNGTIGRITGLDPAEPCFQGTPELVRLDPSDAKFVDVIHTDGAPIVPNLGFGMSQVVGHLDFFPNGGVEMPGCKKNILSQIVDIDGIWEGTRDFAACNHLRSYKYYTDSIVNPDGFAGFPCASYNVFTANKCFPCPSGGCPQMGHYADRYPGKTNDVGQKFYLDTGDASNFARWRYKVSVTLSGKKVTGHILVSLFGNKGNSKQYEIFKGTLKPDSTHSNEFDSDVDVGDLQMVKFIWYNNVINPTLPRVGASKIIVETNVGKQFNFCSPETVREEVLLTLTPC
The experiment is described as follows: Lipase activity, quinine diimine dye colorimetric assay (Sigma Lipase-PS). In kind it is biochemical. The protocol:
Measurement of Lipase Activity Using a Quinine Diimine Dye Calorimetric Assay
The inhibitory activity of the selected compounds to pancreatic lipase was measured in the following assay available from Sigma Ltd (Lipase-PS™, catalog number 805-A):
The glycerol released from the action of pancreatic and monoglyceride lipase was oxidised to release H2O2. The peroxidase reaction step then produces a quinine dye which is pink in colour and absorbs light at a wavelength of 550 nm.
Individual test compounds were dissolved in DMSO (dimethyl sulphoxide) at 10 mM. DMSO was used to avoid any problems with compounds being water-insoluble.
For individual compounds, the IC50 (concentration at which lipase activity is inhibited to one half of the maximum) was calculated by measuring the inhibitory activity from log-dose response curves using a range of inhibitor concentrations.
A range of standard compounds were assayed in the quinine dye calorimetric assay which provides a rapid method to measure lipase inhibitory activity.

For experiment [2], the target named is T2, porcine pancreatic lipase (Sus scrofa, UniProt P00591).
T2 sequence (P00591 1-450): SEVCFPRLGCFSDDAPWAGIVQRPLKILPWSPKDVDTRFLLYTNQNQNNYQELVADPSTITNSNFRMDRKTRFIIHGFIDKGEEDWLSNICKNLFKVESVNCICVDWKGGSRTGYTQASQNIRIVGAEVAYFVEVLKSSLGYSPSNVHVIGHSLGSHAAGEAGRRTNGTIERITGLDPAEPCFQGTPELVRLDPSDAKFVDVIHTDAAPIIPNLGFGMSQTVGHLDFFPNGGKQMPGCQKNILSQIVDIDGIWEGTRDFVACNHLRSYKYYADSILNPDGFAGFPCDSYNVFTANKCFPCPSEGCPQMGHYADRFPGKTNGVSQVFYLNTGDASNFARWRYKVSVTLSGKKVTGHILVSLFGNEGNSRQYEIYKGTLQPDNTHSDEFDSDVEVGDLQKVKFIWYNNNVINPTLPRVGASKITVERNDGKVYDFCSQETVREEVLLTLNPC
In words: Lipase enzyme activity, NaOH titration method (lipid micelles). In kind it is biochemical. The following applies: NaOH titration assay. On the procedure:
Measurement of Lipase Enzyme Activity Using a NaOH Titration Method
The inhibitory activity of the selected compound to pancreatic lipase was measured in the assay described in Pasquier et al; 1996, Vol 7, Nutritional Biochemistry, 293-302.
Log dose/response curves were constructed using a range of inhibitor concentrations.
Selected thieno-oxazinone compounds were tested in the NaOH titration assay. In this assay, the activity of porcine pancreatic lipase in a system containing lipid micelles is recorded. These conditions are therefore similar to those encountered in the gastrointestinal tract.

As usually defined, the IC50 is the concentration needed to halve the response being measured. As to `O=c1oc(Nc2ccccc2)nc2sccc12` [Compound 1, 2-Phenylamino-4H-thieno[2,3-d][1,3]oxazin-4-one], the figures for the IC50 in experiment [1] and in experiment [2] were below 100 nM and at most 1000 nM, respectively.

Consider `O=c1oc(Nc2ccc(Oc3ccccc3)cc2)nc2sccc12` [Compound 5, 2-(4-Phenoxy)phenylamino-4H-thieno[2,3-d][1,3]oxazin-4-one], for which the figures for the IC50 in experiment [1] and in experiment [2] were below 100 nM and at most 1000 nM, respectively.

With `O=c1oc(Nc2ccccc2)nc2cc(-c3ccccc3)sc12` [Compound 6], the IC50 was below 100 nM in experiment [1] and at most 1000 nM in experiment [2].

For `O=c1oc(Nc2ccc(Oc3cccc(C(F)(F)F)c3)cc2)nc2sccc12` [Compound 7, 2-(4-(3-Trifluoromethyl-phenoxy)phenylamino)-4H-thieno[2,3-d][1,3]oxazin-4-one], the IC50 in experiment [1] was below 100 nM; in experiment [2] it was at most 1000 nM.

In the case of `CC(C)(C)c1cc2nc(Nc3ccccc3)oc(=O)c2s1` [Compound 8], the figures for the half-maximal inhibitory concentration (IC50) in experiment [1] and in experiment [2] were below 100 nM and at most 1000 nM, respectively.

Consider `Cc1cc2c(=O)oc(Nc3ccc(Oc4ccccc4)cc3)nc2s1` [Compound 9, 6-Methyl-2-(4-phenoxy)phenylamino-4H-thieno[2,3-d][1,3]oxazin-4-one], for which the results for the concentration for half-maximal inhibition (IC50) in experiment [1] and in experiment [2] were below 100 nM and at most 1000 nM, respectively.

As for `O=c1oc(Nc2ccc(Oc3ccccc3)cc2)nc2ccsc12` [Compound 10, 2-(4-Phenoxy)phenylamino-4H-thieno[3,2-d][1,3]oxazin-4-one], the half-inhibitory concentration (IC50) was below 100 nM in experiment [1] and at most 1000 nM in experiment [2].

Consider `O=c1oc(Nc2ccc(Cc3ccccc3)cc2)nc2sccc12` [Compound 11, 2-(4-Phenylmethyl)phenylamino-4H-thieno[2,3-d][1,3]oxazin-4-one], for which the IC50 in experiment [1] was below 100 nM; in experiment [2], at most 1000 nM.

`O=C(c1ccccc1)c1ccc(Nc2nc3sccc3c(=O)o2)cc1` [Compound 12, 2-(4-Benzoyl)phenylamino-4H-thieno[2,3-d][1,3]oxazin-4-one]: the IC50 was below 100 nM in experiment [1] and at most 1000 nM in experiment [2].

With `O=c1oc(Nc2ccc(Oc3ccc(C(F)(F)F)cc3)cc2)nc2sccc12` [Compound 14, 2-(4-(4-Trifluoromethyl-phenoxy)phenylamino)-4H-thieno[2,3-d][1,3]oxazin-4-one], the IC50 in experiment [1] was below 100 nM; in experiment [2], at most 1000 nM.

As for `O=c1oc(Oc2ccc(Oc3cccc(C(F)(F)F)c3)cc2)nc2ccsc12` [Compound 15, 2-(4-(3-Trifluoromethyl-phenoxy)phenoxy)-4H-thieno[3,2-d][1,3]oxazin-4-one], the IC50 in experiment [1] was below 100 nM; in experiment [2], at most 1000 nM.

Consider `O=c1oc(Nc2ccc(Sc3ccccc3)cc2)nc2sccc12` [Compound 16, 2-(4-Phenylthio)phenylamino-4H-thieno[2,3-d][1,3]oxazin-4-one], for which the results for the IC50 in experiment [1] and in experiment [2] were below 100 nM and at most 1000 nM, respectively.

Consider `CCCCCCCCCCCCNc1nc2sc(C)cc2c(=O)o1` [Compound 18, 2-Dodecylamino-6-methyl-4H-thieno[2,3-d][1,3]oxazin-4-one], for which the IC50 in experiment [1] is below 100 nM.

In turn, `CCCCCCCCCCCCN(C)c1nc2sc(C)cc2c(=O)o1` [Compound 19, 2-N-Dodecyl-N-methylamino-6-methyl-4H-thieno[2,3-d][1,3]oxazin-4-one] came in with an IC50 in experiment [1] below 100 nM.

In turn, `CCCCCCCCCCCCNc1nc2sccc2c(=O)o1` [Compound 20, 2-Dodecylamino-4H-thieno[2,3-d][1,3]oxazin-4-one] showed an IC50 in experiment [1] below 100 nM.

Take `CCCCCCCCCCCCSc1nc2sc(C)cc2c(=O)o1` [Compound 21, 2-Dodecylthio-6-methyl-4H-thieno[2,3-d][1,3]oxazin-4-one]: the IC50 in experiment [1] was below 100 nM.

Compound `O=c1oc(Nc2ccc(S(=O)(=O)c3ccccc3)cc2)nc2sccc12` [Compound 23, 2-(4-Phenylsulfonyl)phenylamino-4H-thieno[2,3-d][1,3]oxazin-4-one] showed an IC50 in experiment [1] below 100 nM.

`O=C(Nc1ccccc1)c1ccc(Nc2nc3sccc3c(=O)o2)cc1` [Compound 24, 2-(4-Phenylcarbamoyl)phenylamino-4H-thieno[2,3-d][1,3]oxazin-4-one] came in with an IC50 in experiment [1] below 100 nM.

In experiment [1], `O=c1oc(Nc2ccc(Oc3ccc(Cl)cc3)cc2)nc2sccc12` [Compound 25, 2-(4-(4-Chlorophenoxy)-phenylamino)-4H-thieno[2,3-d][1,3]oxazin-4-one] showed an IC50 below 100 nM.

In experiment [1], `Cc1ccc(Oc2ccc(Nc3nc4sccc4c(=O)o3)cc2)cc1` [Compound 26, 2-(4-(4-Methylphenoxy)-phenylamino)-4H-thieno[2,3-d][1,3]oxazin-4-one] registered an IC50 below 100 nM.

`N#Cc1ccc(Nc2nc3sccc3c(=O)o2)cc1` [Compound 27, 2-(4-Cyanophenyl)amino-4H-thieno[2,3-d][1,3]oxazin-4-one] returned an IC50 in experiment [1] below 100 nM.

Consider `CCCc1cc2c(=O)oc(Nc3ccc(C#N)cc3)nc2s1` [Compound 28, 2-(4-Cyanophenyl)amino-6-propyl-4H-thieno[2,3-d][1,3]oxazin-4-one], for which the IC50 in experiment [1] is below 100 nM.

Regarding `Cc1cc2c(=O)oc(Nc3ccc(C#N)cc3)nc2s1` [Compound 29, 2-(4-Cyanophenyl)amino-6-methyl-4H-thieno[2,3-d][1,3]oxazin-4-one], in experiment [1], the IC50 was below 100 nM.

Compound `N#Cc1ccc(Nc2nc3sc(Cc4ccccc4)cc3c(=O)o2)cc1` [Compound 30, 6-Phenylmethyl-2-(4-cyanophenyl)amino-4H-thieno[2,3-d][1,3]oxazin-4-one] came in with an IC50 in experiment [1] below 100 nM.

Turning to `CCCCCCCCCCCCc1cc2c(=O)oc(Nc3ccc(C#N)cc3)nc2s1` [Compound 31, 2-(4-Cyanophenyl)amino-6-dodecyl-4H-thieno[2,3-d][1,3]oxazin-4-one], in experiment [1], the IC50 is below 100 nM.

On to `Cc1cc2c(=O)oc(NCCCCc3ccccc3)nc2s1` [Compound 32, 6-Methyl-2-(4-phenylbutyl)amino-4H-thieno[2,3-d][1,3]oxazin-4-one], for which the IC50 in experiment [1] is below 100 nM.

On to `Cc1cc2c(=O)oc(NCCCl)nc2s1` [Compound 33, 2-(2-Chloroethyl)amino-6-methyl-4H-thieno[2,3-d][1,3]oxazin-4-one], for which the IC50 in experiment [1] was below 100 nM.

Compound `COC(=O)CCCCCNc1nc2sc(C)cc2c(=O)o1` [Compound 35, 2-(5-Methoxycarbonylpentyl)amino-6-methyl-4H-thieno[2,3-d][1,3]oxazin-4-one] gave an IC50 in experiment [1] below 100 nM.

In experiment [1], `O=c1oc(Nc2ccc(Oc3ccc(C(F)(F)F)cc3)cc2)nc2ccsc12` [Compound 38, 2-(4-(4-Trifluoromethyl-phenoxy)phenylamino)-4H-thieno[3,2-d][1,3]oxazin-4-one] returned an IC50 below 100 nM.

`N#Cc1ccc(Nc2nc3ccsc3c(=O)o2)cc1` [Compound 40, 2-(4-Cyanophenyl)amino-4H-thieno[3,2-d][1,3]oxazin-4-one] came in with an IC50 in experiment [1] below 100 nM.

With `CCCCCCCCCCCCNc1nc2ccsc2c(=O)o1` [Compound 41, 2-Dodecylamino-4H-thieno[3,2-d][1,3]oxazin-4-one], the IC50 in experiment [1] is below 100 nM.

`Cc1cc2nc(Nc3ccc(Oc4ccccc4)cc3)oc(=O)c2s1` [Compound 43, 5-Methyl-2-(4-phenoxy)phenylamino-4H-thieno[3,2-d][1,3]oxazin-4-one]: the results for the concentration for half-maximal inhibition (IC50) in experiment [1] and in experiment [2] were below 100 nM and at most 1000 nM, respectively.

Take `CCCc1cc2c(=O)oc(Nc3ccc(Oc4ccccc4)cc3)nc2s1` [Compound 44, 6-Propyl-2-(4-phenoxy)phenylamino-4H-thieno[2,3-d][1,3]oxazin-4-one]: the IC50 in experiment [1] was below 100 nM; in experiment [2], at most 1000 nM.
